The term pEC50 denotes the EC50 on a negative log10 scale, so that one unit is a factor of ten.

Test [1] concerns RD-ES. Briefly: Proliferation assay, CellTiter-Glo, 72 hour. Type of test: cell-based. The note with it: Ewing's sarcoma cell line, read-out: Inhibition of proliferation, RD-ES. In general terms: Cellular ATP, detected with luciferase, serves as a proxy for viable cell number.
Test [2] has as its system MCF7. The test is described as follows: Proliferation assay, CellTiter-Glo, 72 hour. Type of test: cell-based. The note with it: read-out: Inhibition of proliferation, MCF7.
For test [3], the system named is MDA-MB231. The test is described as follows: Proliferation assay, CellTiter-Glo, 72 hour. Type of test: cell-based. The note with it: read-out: Inhibition of proliferation, MDA-MB231.
Test [4] relates to patient-derived chronic lymphocytic leukemia (CLL) isolates. Briefly: Cell death of patient-derived CLL isolates, Annexin V staining, 24 hour. The format is cell-based, human. The note with it: Homo sapiens, read-out: Pro-death signaling, average EC50 values. On the procedure:
Clinical isolates of CLL were cultured with compounds of Formula (I) or flavopiridol and assessed for cell death after a 24 hour time course by Annexin V staining. […] Anti-proliferative effect was measured using cell titer glo analysis.
PBMCs freshly isolated from peripheral blood are seeded in 24 well plates at a volume of 0.5 ml and a concentration of 2×10^6 cells/ml. Compounds and controls are added to respective wells in a total volume of 2.5 μl. Plates are mixed gently and incubated approximately 24 hours at 37° C., 5% CO2. Apoptosis was measured in all cells from each well using the Annexin V: FITC Apoptosis Detection Kit I (BD Biosciences). Normalized % death was calculated as follows: [(% Dead Drug−% Dead DMSO)/(100%−% Dead DMSO)]×100

For test [5], the system named is RS4-11. The test is described as follows: Proliferation assay, CellTiter-Glo, 72 hour. Type of test: cell-based. The note with it: read-out: Inhibition of proliferation, RS4-11.
The subject of test [6] is SAOS. The test is described as follows: Proliferation assay, CellTiter-Glo, 72 hour. The note with it: osteosarcoma cell line, read-out: Inhibition of proliferation, SAOS. The format is cell-based.
The subject of test [7] is Hs822T. Briefly: Proliferation assay, CellTiter-Glo, 72 hour. The note with it: Ewing's sarcoma cell line, read-out: Inhibition of proliferation, Hs822T. The format is cell-based.
Test [8] has as its system THP-1. Briefly: Proliferation assay, CellTiter-Glo, 72 hour. The format is cell-based. The note with it: read-out: Inhibition of proliferation, THP-1.
Test [9] concerns SKBR3. Briefly: Proliferation assay, CellTiter-Glo, 72 hour. Type of test: cell-based. The note with it: read-out: Inhibition of proliferation, SKBR3.
The test system of test [10] is T47D. Briefly: Proliferation assay, CellTiter-Glo, 72 hour. Type of test: cell-based. The note with it: breast cancer cell line, read-out: Inhibition of proliferation, T47D.
The subject of test [11] is RNAP II occupancy. The test is described as follows: RNAP II ChIP-seq in Jurkat cells. Type of test: cell-based, human. The note with it: 250 nM for 6 hours. As to the method:
After the indicated treatment time, cells were crosslinked for 10 minutes at room temperature by the addition of one-tenth of the volume of 11% formaldehyde solution (11% formaldehyde, 50 mM Hepes (pH 7.3), 100 mM NaCl, 1 mM EDTA (pH 8.0), 0.5 mM EGTA (pH 8.0)) to the growth media followed by two washes with PBS. Following the final PBS wash, supernatant was aspirated, and the cell pellet was flash frozen in liquid nitrogen. Frozen crosslinked cells were stored at −80° C.
50 μl of Dynal magnetic beads (Sigma) were blocked with 0.5% BSA (w/v) in PBS. Magnetic beads were bound with 5 μg of the indicated antibody. Antibodies used are as follows: Total RNAP II (Rpb1 N-terminus): Santa Cruz sc-899; CDK7: Bethyl A300-405A. Crosslinked cells were lysed with lysis buffer 1 (50 mM Hepes (pH 7.3), 140 mM NaCl, 1 mM EDTA, 10% glycerol, 0.5% NP-40, and 0.25% Triton X-100) and washed with lysis buffer 2 (10 mM Tris-HCl (pH 8.0), 200 mM NaCl, 1 mM EDTA (pH 8.0) and 0.5 mM EGTA (pH 8.0)). […]
Illumina sequencing libraries were generated, and data were processed according to Lin et al., Cell (2012) 151:56-67. […] These criteria preserved only reads that mapped uniquely to the genome with 1 or fewer mismatches. […]

In test [12] the test system is A673. Briefly: Proliferation assay, CellTiter-Glo, 72 hour. The format is cell-based. The note with it: read-out: Inhibition of proliferation, A673.
In test [13] the test system is hTERT-HME1. The test is described as follows: Proliferation assay, CellTiter-Glo, 72 hour. Type of test: cell-based. The note with it: read-out: Inhibition of proliferation, hTERT-HME1.
In test [14] the test system is MV4-11. Briefly: Proliferation assay, CellTiter-Glo, 72 hour. The note with it: read-out: Inhibition of proliferation, MV4-11. The format is cell-based.
The subject of test [15] is 143B. Briefly: Proliferation assay, CellTiter-Glo, 72 hour. Type of test: cell-based. The note with it: osteosarcoma cell line, read-out: Inhibition of proliferation, 143B.
Test [16] concerns HL60. Briefly: Proliferation assay, CellTiter-Glo, 72 hour. Type of test: cell-based. The note with it: read-out: Inhibition of proliferation, HL60.
Test [17] deals with Hs863T. The test is described as follows: Proliferation assay, CellTiter-Glo, 72 hour. Type of test: cell-based. The note with it: Ewing's sarcoma cell line, read-out: Inhibition of proliferation, Hs863T.
Test [18] deals with SK-ES. The test is described as follows: Proliferation assay, CellTiter-Glo, 72 hour. The format is cell-based. The note with it: Ewing's sarcoma cell line, read-out: Inhibition of proliferation, SK-ES.
Test [19] concerns MNNG-HOS Cl#5. Briefly: Proliferation assay, CellTiter-Glo, 72 hour. Type of test: cell-based. The note with it: osteosarcoma cell line, read-out: Inhibition of proliferation, MNNG-HOS Cl#5.
The subject of test [20] is MCF10A. The test is described as follows: Proliferation assay, CellTiter-Glo, 72 hour. The format is cell-based. The note with it: non-tumorigenic breast epithelial cell line, read-out: Inhibition of proliferation, MCF10A.
Test [21] deals with MLK3 (Homo sapiens (Human), UniProt Q16584). The test is described as follows: Life Technologies LanthaScreen Eu kinase assay, MLK3. Type of test: binding. The note with it: for pIC50: read-out: Calculated IC50, MLK3.
The target in test [22] is T1, CDK7 (Homo sapiens (Human), UniProt P50613). The test is described as follows: In vitro inhibitory activity against CDK7 (Table 1). The format is biochemical. On the procedure: In vitro kinase assays with immunoprecipitated proteins (or recombinant CAK complexes) were performed as follows. Kinase reactions were performed in 25 μL of final volume of reaction buffer (50 mM Hepes, pH 7.5, 150 mM NaCl, 10 mM MgCl2, 5% glycerol, 25 μM ATP, and 10 μCi of [γ-32P]ATP). Each reaction contained 1 μg of RNAP II. Incubation was at 30° C. for 30-45 min. Reactions were terminated by addition of 5 μL of 5×SDS-PAGE sample buffer and incubated at 95° C. for 5 min. Reactions were analyzed by SDS-PAGE, and the dried gel was exposed to film or PhosphorImager plate.
Target sequence in this assay (P50613 whole entry, looked up): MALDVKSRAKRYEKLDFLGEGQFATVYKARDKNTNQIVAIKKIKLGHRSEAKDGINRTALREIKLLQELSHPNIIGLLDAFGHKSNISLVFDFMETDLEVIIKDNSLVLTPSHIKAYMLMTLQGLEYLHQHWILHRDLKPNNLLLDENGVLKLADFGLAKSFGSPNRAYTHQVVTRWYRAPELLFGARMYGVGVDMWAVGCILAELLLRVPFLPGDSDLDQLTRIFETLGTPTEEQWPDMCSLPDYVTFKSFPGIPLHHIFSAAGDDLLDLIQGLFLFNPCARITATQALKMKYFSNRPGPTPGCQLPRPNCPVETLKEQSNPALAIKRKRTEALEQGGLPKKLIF
Target sequence in this assay (P51946 whole entry partner, looked up): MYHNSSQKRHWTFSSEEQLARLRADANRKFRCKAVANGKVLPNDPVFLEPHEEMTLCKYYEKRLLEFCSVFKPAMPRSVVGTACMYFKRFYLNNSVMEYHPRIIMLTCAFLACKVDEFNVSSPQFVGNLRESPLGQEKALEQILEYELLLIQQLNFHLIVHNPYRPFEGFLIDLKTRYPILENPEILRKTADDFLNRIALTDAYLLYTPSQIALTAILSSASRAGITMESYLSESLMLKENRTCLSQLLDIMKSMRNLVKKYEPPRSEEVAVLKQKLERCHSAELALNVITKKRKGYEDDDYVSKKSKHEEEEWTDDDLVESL
Target sequence in this assay (P51948 whole entry partner, looked up): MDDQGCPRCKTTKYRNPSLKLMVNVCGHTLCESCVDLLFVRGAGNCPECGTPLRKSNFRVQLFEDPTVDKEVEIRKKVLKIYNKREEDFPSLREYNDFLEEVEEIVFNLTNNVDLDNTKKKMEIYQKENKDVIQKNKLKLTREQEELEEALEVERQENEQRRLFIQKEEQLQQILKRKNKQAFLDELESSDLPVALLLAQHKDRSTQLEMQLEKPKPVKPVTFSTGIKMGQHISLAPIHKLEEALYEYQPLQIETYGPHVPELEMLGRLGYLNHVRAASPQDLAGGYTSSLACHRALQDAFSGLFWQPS

In test [23] the target is IRAK1 (Homo sapiens (Human), UniProt P51617). Briefly: Life Technologies Adapta kinase assay, IRAK1. Type of test: biochemical. The note with it: superscript b (footnote not given; tested at 100 nM and 1 μM).
The target of test [24] is T1, CDK7. Briefly: Compound I-49 pull down from Loucy cellular lysates. The note with it: 1 μM, 4° C., 12 hours. The format is binding. On the procedure:
Precipitated proteins were washed and probed for CDK7.
(§1) Following the treatment, the cells were washed 2-fold with cold PBS and then lysed in the following lysis buffer: 50 mM TrisHCl pH 8.0, 150 mM NaCl, 1% NP-40, 5 mM EDTA, 1 mM DTT, and protease/phosphatase cocktails. Following clearance, the lysates were treated with compound I-49 for pulldown (or CDK7 antibody for IP) overnight at 4° C. The lysates were then incubated with streptavidin agarose for pulldown (or Protein G Agarose for IP) for an additional 2-3 hours at 4° C. Agarose beads were washed 5 times with a lysis buffer and then boiled in 2X SDS for 10 minutes at 95° C.
Target sequence in this assay (P50613 whole entry): as the sequence (P50613 whole entry, looked up) above

For test [25], the system named is cyclin K. The test is described as above. Type of test: binding. As to the method:
(§2) However, cyclin K, which is known to bind to CDK12/13, did interact with I-49. […] Lysates were then probed with I-49. Precipitated proteins were washed and probed with antibodies as shown.
as §1

Test [26] concerns CDK1, CDK2, CDK4, and CDK6. Described as above. Type of test: binding. On the procedure: as §2, §1
Test [27] deals with CDK5/p25 (Homo sapiens (Human), UniProt Q00535). Briefly: Life Technologies Z'-Lyte kinase assay, CDK5/p25. The format is biochemical. The note with it: read-out: Calculated IC50, CDK5/p25.
Test [28] concerns Jurkat. The test is described as follows: Jurkat (proliferation, CellTiter-Glo). Type of test: cell-based. The note with it: Homo sapiens, Jurkat; read-out: Calculated IC50, Jurkat.

pEC50, pIC50: −log10 of the molar value. Read-outs that look alike come from different tables or passages of the source. Bounds are passed on as bounds.

MLK3, sequence (Q16584 whole entry): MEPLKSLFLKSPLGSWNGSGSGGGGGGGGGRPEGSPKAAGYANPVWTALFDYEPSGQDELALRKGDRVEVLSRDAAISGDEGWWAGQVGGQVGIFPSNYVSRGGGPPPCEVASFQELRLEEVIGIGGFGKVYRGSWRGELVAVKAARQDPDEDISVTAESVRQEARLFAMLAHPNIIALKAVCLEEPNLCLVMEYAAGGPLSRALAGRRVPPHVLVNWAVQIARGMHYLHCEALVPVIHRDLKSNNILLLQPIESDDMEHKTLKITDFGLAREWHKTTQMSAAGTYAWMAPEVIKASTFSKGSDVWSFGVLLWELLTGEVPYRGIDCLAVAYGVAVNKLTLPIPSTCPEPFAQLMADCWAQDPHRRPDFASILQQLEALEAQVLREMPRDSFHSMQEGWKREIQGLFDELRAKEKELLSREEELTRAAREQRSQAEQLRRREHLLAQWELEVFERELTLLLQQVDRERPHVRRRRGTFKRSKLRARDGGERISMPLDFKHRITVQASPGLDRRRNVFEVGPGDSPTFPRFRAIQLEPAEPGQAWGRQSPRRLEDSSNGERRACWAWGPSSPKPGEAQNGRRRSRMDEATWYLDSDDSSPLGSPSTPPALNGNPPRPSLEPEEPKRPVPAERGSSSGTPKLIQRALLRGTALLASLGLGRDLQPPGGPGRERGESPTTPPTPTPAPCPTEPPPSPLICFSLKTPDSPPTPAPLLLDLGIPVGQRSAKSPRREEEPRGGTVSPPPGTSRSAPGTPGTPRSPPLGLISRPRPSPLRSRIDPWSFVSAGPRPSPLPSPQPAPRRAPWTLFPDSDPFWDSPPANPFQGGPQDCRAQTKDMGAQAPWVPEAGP
IRAK1, sequence (P51617 whole entry): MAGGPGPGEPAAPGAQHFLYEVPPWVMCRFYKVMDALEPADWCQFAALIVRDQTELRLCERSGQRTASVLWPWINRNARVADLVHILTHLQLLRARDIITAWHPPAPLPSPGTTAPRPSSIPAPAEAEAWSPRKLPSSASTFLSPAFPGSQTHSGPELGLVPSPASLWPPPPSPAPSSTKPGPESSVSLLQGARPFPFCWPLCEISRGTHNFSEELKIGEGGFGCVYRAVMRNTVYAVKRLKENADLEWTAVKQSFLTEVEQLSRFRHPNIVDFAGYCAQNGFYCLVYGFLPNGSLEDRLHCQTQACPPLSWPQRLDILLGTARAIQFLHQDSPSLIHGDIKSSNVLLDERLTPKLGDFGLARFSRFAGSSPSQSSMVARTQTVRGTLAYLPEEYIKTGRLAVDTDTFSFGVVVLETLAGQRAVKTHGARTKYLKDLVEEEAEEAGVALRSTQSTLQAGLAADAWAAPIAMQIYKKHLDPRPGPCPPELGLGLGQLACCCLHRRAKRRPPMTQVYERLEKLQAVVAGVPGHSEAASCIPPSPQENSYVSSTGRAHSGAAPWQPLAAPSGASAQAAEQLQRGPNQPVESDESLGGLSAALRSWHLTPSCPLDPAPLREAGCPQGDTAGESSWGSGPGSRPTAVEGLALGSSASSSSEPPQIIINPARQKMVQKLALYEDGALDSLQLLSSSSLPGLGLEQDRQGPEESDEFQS
CDK5/p25, sequence (Q00535 whole entry): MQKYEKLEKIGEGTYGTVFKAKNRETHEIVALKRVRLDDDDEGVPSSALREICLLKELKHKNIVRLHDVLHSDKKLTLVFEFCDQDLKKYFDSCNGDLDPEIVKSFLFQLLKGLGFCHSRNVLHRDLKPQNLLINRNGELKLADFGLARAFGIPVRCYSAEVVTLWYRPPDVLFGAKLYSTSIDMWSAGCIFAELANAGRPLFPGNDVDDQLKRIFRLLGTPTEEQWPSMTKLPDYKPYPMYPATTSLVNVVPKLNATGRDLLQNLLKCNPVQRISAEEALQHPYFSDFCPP
CDK5/p25, sequence (Q15078 99-307 partner): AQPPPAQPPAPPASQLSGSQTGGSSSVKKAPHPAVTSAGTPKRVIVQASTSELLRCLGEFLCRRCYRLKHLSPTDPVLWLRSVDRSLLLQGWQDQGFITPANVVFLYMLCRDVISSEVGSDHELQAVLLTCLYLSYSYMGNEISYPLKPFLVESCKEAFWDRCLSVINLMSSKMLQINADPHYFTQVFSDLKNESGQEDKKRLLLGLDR

With `CN1CC[C@H](c2c(O)cc(O)c3c(=O)cc(-c4ccccc4Cl)oc23)[C@H](O)C1` [Flavopiridol, flavopiridol, reference compound], the pIC50 in test [1] (RD-ES) was above 6.30; in test [2] (Homo sapiens, MCF7, breast cancer cell line) it was 5.30 to 6.30; in [3] (Homo sapiens, MDA-MB-231, breast cancer cell line), above 6.30; in [5] (Homo sapiens, RS4-11, blood cancer cell line), above 6.30; in test [6], above 6.30; in test [7], below 5.30. For the same compound, the pIC50 in [8] (Homo sapiens, THP-1, blood cancer cell line) was above 6.30; in test [9] (Homo sapiens, SK-BR-3, breast cancer cell line) it was above 6.30; in test [10] (Homo sapiens, T47D), below 5.30; in [12] (Homo sapiens, A673, Ewing's sarcoma cell line) it was above 6.30; in test [13] (hTERT-HME1, immortalized normal mammary epithelial cell line), above 6.30; in test [14] (Homo sapiens, MV4-11, blood cancer cell line), above 6.30. In addition, the pIC50 in test [15] (Homo sapiens, 143B) is 5.30 to 6.30; in test [16] (Homo sapiens, HL-60, blood cancer cell line), above 6.30; in test [17], below 5.30; in [18], above 6.30; in [19] it was 5.30 to 6.30; in test [20] (Homo sapiens, MCF-10A), above 6.30. Besides, the pEC50 in [4] was above 6.70. In addition, the “RNAP II occupancy at the promoter proximal pause site” value in [11] is “unaffected”.

On to `Cc1ccc(Nc2ncc(C)c(-c3c[nH]c4ccccc34)n2)cc1NC(=O)c1ccc(NC(=O)/C=C/CN(C)C)cc1` [Formula I-20], for which the pIC50 in [1], in test [2] (breast cancer cell line), in test [3] (breast cancer cell line), in test [5] (blood cancer cell line), in [6] and in [7] was above 6.30 in each case. The pIC50 in test [8] (blood cancer cell line) is above 6.30; in test [21], above 7.00; in [9] (breast cancer cell line), 5.30 to 6.30; in [22], 7.68; in test [10], 5.30 to 6.30; in test [12] (Ewing's sarcoma cell line), above 6.30. Also, the pIC50 in test [13] (immortalized normal mammary epithelial cell line) was above 6.30; in [14] (blood cancer cell line) it was above 6.30; in [15], below 5.30; in test [16] (blood cancer cell line), above 6.30; in test [17], above 6.30; in [18], above 6.30. In addition, the values for the pIC50 in [19] and in test [20] were 5.30 to 6.30 and above 6.30, respectively. In test [21] (superscript b (footnote not given; tested at 100 nM and 1 μM)), the “Percent inhibition, MLK3^b” value was “C (less than 50% inhibition)”. Further, in [23], the “Percent inhibition, IRAK1^b” value is reported as “C (less than 50% inhibition)”.

Turning to `CN(C/C=C/C(=O)Nc1ccc(C(=O)Nc2cccc(Nc3ncc(Cl)c(-c4c[nH]c5ccccc45)n3)c2)cc1)CCCNC(=O)NCCOCCOCCOCCNC(=O)CCCCC1SCC2NC(=O)NC21` (stereo not drawn) [Formula I-49], the “Pull down of CDK7 from cellular lysates” value in test [24] is “pulls down CDK7”. In addition, in test [25], the “Interaction with cyclin K” value is given as “did interact”. Also, the “Interaction with CDK1, CDK2, CDK4, and CDK6” value in test [26] is listed as “do not interact”.

Consider `CN(C)C/C=C/C(=O)Nc1ccc(C(=O)Nc2cccc(Nc3ncc(C#N)c(-c4c[nH]c5ccccc45)n3)c2)cc1` [Formula I-53, (E)-N-(3-(5-cyano-4-(1H-indol-3-yl)pyrimidin-2-ylamino)phenyl)-4-(4-(dimethylamino)but-2-enamido)benzamide], for which the pIC50 is above 7.00 in [21], 6.00 to 7.00 in [27] and above 7.00 in test [28].
